Reference: patent US20050164331A1, “Method and device for detecting toxic material in water using microbial fuel cell” (priority 2002, published 2005)
Like-named read-outs stand apart in the source and are kept apart here.

Tests used:
[1] = system: electrochemically active bacteria in the sludge
From the text: The sample enters into the anode part after passing through the first and the second pretreatment tanks(2,3). The anode part is composed of a carbon felt and platinum(Pt) wire, while its inside part is filled usually with a microorganism catalyst which generates electrochemical energy using organic raw material. The cathode part is filled with ordinary water. Namely, the sample containing organic materials enters into the anode and the water-saturated with air enters the cathode. Now the organic materials are decomposed by microorganism at the anode part of the fuel cell and a current is generated. The current moves along the Pt wire and is measured by the voltmeter.
Active sludge was introduced into the anode part so that the electrochemically active bacteria in the sludge are attached to the electrode and densely cultured. To the cathode part, water saturated with air was incorporated, keeping a certain potential difference so as to make an efficient biological electrochemical reaction occur in the microbial fuel cell. Into this microbial fuel cell, added were glucose and glutamic acid(CODcr 200 ppm, which means the chemical oxygen demand due to the potassium dichromate) as fuel and the generated current was measured by the volt meter(2000 multimeter, Keithley Instrument. Inc, USA) at 60 seconds interval, while adding to the used fuel cell, Cr^6+ standard solution successively in the concentration of 0.01 ppm, 0.02 ppm, 0.03 ppm, 0.04 ppm and 0.05 ppm.

golden dace = conditions: 8 ppm phenol introduced to water; cited from earlier work
[2] = microbial fuel cell with active sludge, fuel glucose and glutamic acid (CODcr 200 ppm), standard solution added successively at 0.01-0.05 ppm, current measured at 60 seconds interval

SMILES | concentration at which the constantly generated current showed a sharp drop [1, 2] | time required to determine the toxicity using fish (golden dace) | concentration at which the constantly generated current showed a sharp drop [1]
[Cr+6] [Cr^6+] | 0.04 ppm | – | –
Oc1ccccc1 [phenol] | – | 8 h | 0.03 ppm
[Pb] [Pb, lead] | 0.04 ppm | – | –
